Measurements: patent US7402574B2, “Antisense composition and method for treating cancer” (AVI BioPharma, Inc., priority 2004, dated 2008)

Columns and labels:
[1] = test system: HCT-116; test: HCT-116 cells treated with sulindac sulfide, apoptosis and proliferation; type: cell-based, human; conditions: 100 μM, 3 days
[2] = test system: E-Cadherin; test: HCT-116 cells treated with sulindac sulfide, E-Cadherin by RT-PCR; type: cell-based, human; conditions: 100 μM, 3 days
Procedure: (§1) For chemopreventive studies, we treated the human CRC cell line HCT-116 with sulindac sulfide (100 μM) or vehicle for 3 days and analyzed SNAIL and E-Cadherin by RT-PCR. In order to evaluate frequency of SNAIL overexpression in human colon cancer, we immunohistochemically probed a tissue array using a poly clonal antibody. Finally, to determine whether SNAIL is implicated in E-cadherin donwregulation in CRC, we treated 10 week old male MIN mice with antisense PMO to SNAIL (250 μg/day for 5 weeks) and examined E-cadherin levels in the uninvolved intestine using Western blot analysis.

[3] = test system: SNAIL; test: HCT-116 cells treated with sulindac sulfide, SNAIL by RT-PCR; type: cell-based, human; conditions: 100 μM, 3 days, p=0.007
Procedure: as §1

[4] = test system: MIN mice; test: Hair loss (alopecia) in PMO treated MIN mice; type: in vivo, mouse; conditions: antisense treated MIN mice, Example 3
Text: As described above, SNAIL binds the E-box motifs of E-cadherin, and therefore inhibits E-cadherin expression. E cadherin is required for proper hair follicle cycling (Young, Boussadia et al. 2003). E-cadherin binds with β-catenin altering its location within the cell as well as reducing its availability. Decreasing the level of SNAIL leads to increased E-cadherin which then limits the availability of β-catenin. The decrease in β-catenin leads to an increase in genes in the NF-kappa beta pathway, including Fas and TRAF1. […] Antisense SNAIL PMO administered systemically (e.g. intravenous injection as in Example 3) could cause alopecia through Fas-mediated apoptosis of hair follicle cells or because E cadherin levels have increased sufficiently to cause abnormal hair follicle cycling.
(§2) Sixteen MIN mice (9-10 week old) were randomized to daily i.p. injections for 5 weeks with either saline or anti-SNAIL phosphorodiamidate morpholino antisense oligomers (PMO; 200 μg/20 g mouse). Animals were given BrdU 2 h prior to sacrifice and intestinal tumors were scored under magnification by observers blinded to treatment group. Immunohistochemical analysis was performed on formalin fixed intestinal segments for proliferation (BrdU labeling), apoptosis (using activated caspase 3) and SNAIL downregulation. The samples were scored by a gastrointestinal pathologist.

[5] = test system: Apc^Min/+ (MIN) mouse; test: MIN mouse, antisense SNAIL PMO IP for four weeks, adenomatous polyp / tumor formation; type: in vivo; conditions: MIN mice, 4 weeks treatment, IP 250 μg per day, five days per week
Text: The Apc^Min/+ (MIN) mouse is a model for colorectal cancer and was used by the inventors to study the effects of antisense SNAIL PMO on the incidence and development of intestinal precancerous lesions (see e.g. Examples 2&3). The MIN mouse has a germ-line mutation in the adenomatous polyposis coli (Apc) gene which leads to familial adenomatous polyposis (FAP). Inactivation of Apc is found in 80% of sporadic human colorectal cancers and in humans with FAP (Kinzler and Vogelstein 1996). The MIN mouse model mimics the rapid development of adenomatous polyps that affect humans with germ-line inactivation of one Apc gene and therefore is a respected model for human colon carcinogenesis.
This observation clearly supports the role of SNAIL in the progression of colon carcinogenesis and as a potent target for anti-carcinogenic therapies.
Ten week-old MIN mice were injected intraperitonealy (IP) with SNAIL PMO (SEQ ID NO: 11) at a dose of 250 μg per day, five days per week for four weeks. Control mice were not injected with any antisense compound and were allowed to develop colon cancers.

[6] = test system: SNAIL; test: MIN mice, immunohistochemical analysis of intestinal segments for SNAIL downregulation; type: in vivo; conditions: daily i.p. 5 weeks, 200 μg/20 g mouse
Procedure: as §2

[7] = test system: mucosal proliferation (BrdU labeling); test: MIN mice, immunohistochemical analysis of intestinal segments for proliferation (BrdU labeling); type: in vivo; conditions: daily i.p. 5 weeks, 200 μg/20 g mouse, BrdU 2 h prior to sacrifice, control 8.92 ± 8.00, p < 0.05
Procedure: as §2

[8] = test system: activated caspase 3; test: MIN mice, immunohistochemical analysis of intestinal segments for apoptosis (activated caspase 3); type: in vivo; conditions: daily i.p. 5 weeks, 200 μg/20 g mouse, immunohistochemistry, control 1.00 ± 0.74, p < 0.05
Procedure: as §2

[9] = test system: E-cadherin; test: MIN mice treated with antisense PMO to SNAIL, E-cadherin in uninvolved intestine by Western blot; type: in vivo, mouse; conditions: 10 week old male MIN mice, 250 μg/day for 5 weeks, p=0.027
Procedure: as §1

[10] = test system: APC^MIN mouse; test: MIN mice, anti-SNAIL PMO daily i.p. 5 weeks, intestinal tumors scored; type: in vivo; conditions: 200 μg/20 g mouse
Procedure: as §2

## CSc1ccc(/C=C2/C(C)=C(CC(=O)O)c3cc(F)ccc32)cc1 [sulindac sulfide]
[1]
  apoptosis: induced apoptosis
  proliferation: inhibited proliferation
[2]
  E-cadherin expression: induction
[3]
  SNAIL expression (% of vehicle): 39.2 % of vehicle

## SNAIL PMO: phosphorodiamidate morpholino antisense oligomer GGAGCGCGGCATGTTGGCC, target ncts. 8-26 of GenBank M95604 (all phosphorodiamidate morpholino (PMO))
[4]
  hair loss (alopecia): pronounced hair loss (alopecia)
[4]; listed as Antisense SNAIL PMO
  hair loss (alopecia): induce alopecia
[5]
  reduction in formation of adenomatous polyps, colon: 44.1%
  reduction in formation of adenomatous polyps, proximal bowel: 41.6%
  total number of tumors reduced: 21.9%
[6]; immunohistochemistry, control 2.58 ± 0.67, p < 0.05
  SNAIL (Arbit. Units): 2.00 ± 0.58 Arbit. Units
[6]; versus saline control
  suppression of SNAIL protein expression: 23%
[7]
  BrdU Positive (% Total): 3.43 ± 3.80 % Total
[8]
  Cleaved Caspase-3 (Arbit. Units): 1.50 ± 0.65 Arbit. Units
[9]
  increase in intestinal E-cadherin protein: 26%
[10]; control 25.06 ± 4.10, p < 0.05
  Tumor incidence (%): 19.57 ± 6.16%
[10]; versus saline control
  anti-tumorigenic effect (decrease): 22%
